Laboratory results taken from patent publication US10272135B2, “Apolipoprotein O and fragments thereof for inducing apoptosis in a cancerous cell” (INSERM (INSTITUT NATIONAL DE LA SANTÉ ET DE LA RECHERCHE …, priority 2014, dated 2019).

How the values were obtained:
Assay type in all cases: cell-based
H9c2 cardiac myoblasts [1] = experiment: Measurement of O2 consumption (Oroboros Oxygraph-2k) in cardiac myoblasts; conditions: for oxygen consumption: cells treated with 1 μM antimycin or 1.5 μg/ml oligomycin (FIG. 4B)
Excerpt: After ethical committee approval, all patients in this study gave written consent for sample collection and molecular analysis prior to inclusion. Patients were carefully selected by physicians from the Department of Cardiology, Toulouse University Hospital, prior to coronary by-pass surgery. Bioinformatics. Microarray expression data from human heart samples were downloaded from the GEO repository (GSE1145). This series consisted of 107 myocardial samples collected from patients undergoing cardiac transplantation whose failure arises from different etiologies (e.g. idiopathic dilated cardiomyopathy, ischemic cardiomyopathy, valvular cardiomyopathy, and hypertrophic cardiomyopathy) and from “normal” organ donors whose hearts cannot be used for transplants. Arrays were intensity normalized and hierarchical clustering (average group linkage, Pearson correlation, threshold r=0.8) was applied to identify groups of co-expressed genes. ApoO expression levels were plotted for the 107 human hearts tested and used to define relevant molecular pathways using both Toppgene and Ingenuity Pathway Analysis (Ingenuity systems, Redwood City, Calif., USA). ApoO subcellular localization was predicted using Mitopred, mitoprot and YLoc. Animals: All animal Studies followed the INSERM Institute Animal Facility guidelines and were approved by the animal care committees of the INSERM I2MC UMR 1048. All animal procedures were performed according to the guidelines of the French Ministry of Agriculture. Animals were housed at the Toulouse I2MC animal facility in a room lit 12 h per day (6 AM-6 PM) at an ambient temperature of 22+/−1° C. Construction of ApoO Expression Vectors To overexpress human ApoO (pTT-ApoO), the ApoO coding sequence was amplified using primers hApoO5BamPTT (SEQ ID NO: 2) and hApoO3BamPTT (SEQ ID NO: 3) and cloned into the BamH1 site of pTT expression vector. pSNAP-ApoO was generated by PCR amplification of pTT-ApoO using primers SnapApoEcorV-F (SEQ ID NO: 4) and SnapApoEcorV-R (SEQ ID NO: 5) and cloned into the EcoRV site of pSNAP-Tag® (Ozyme, Saint-Quentin-en-Yvelines, France). pGEX2T-ApoO was constructed by PCR amplification of pTT-ApoO using hApoOpGEX1FBam (SEQ ID NO: 6) and hApoOpGEX1RSma (SEQ ID NO: 7) and cloned into the Bam HI/Sma I site of pGEX2T (Promega, Charbonnières-les-Bains). All primers used in this work were synthesized by Eurogentec France (Angers). All restriction enzymes used were from New England Biolabs (Ozyme, Saint-Quentin-en-Yvelines). All ApoO sequences within the expression vectors were verified by DNA double strand sequencing using ABI PRISM®BigDye™ Terminator version 3.1 Ready reaction cycle sequencing kit (Life Technologies SAS, Villebon sur Yvette) and loaded on an ABI 3130XL DNA sequencing instrument (Life Technologies SAS, Villebon sur Yvette). Cell Culture and Tranfection of H9C2 Cardic Myoblasts H9c2 were obtained from the European Collection of Cell Cultures (Salisbury, England). H9c2 cells were cultured in Dulbecco's modified Eagle medium (Life Technologies SAS, Villebon sur Yvette) adjusted to contain 1.5 g/liter sodium bicarbonate and supplemented with antibiotic-antimycotic solution (Life Technologies SAS, Villebon sur Yvette) and 10% fetal bovine serum (FBS, AbCys s.a., Paris). Cells were plated on 10-cm diameter tissue culture dish and grown in a 5% CO2 incubator at 37° C. with saturating humidity with medium changes every 2 days. […]

Caspase-3 = Caspase-3 enzymatic activity in H9c2 cardiac myoblasts; conditions: ApoO cells treated with both palmitate and oleate (FIG. 11c)
Excerpt: (§1) After ethical committee approval, all patients in this study gave written consent for sample collection and molecular analysis prior to inclusion. Patients were carefully selected by physicians from the Department of Cardiology, Toulouse University Hospital, prior to coronary by-pass surgery. Bioinformatics. Microarray expression data from human heart samples were downloaded from the GEO repository (GSE1145). This series consisted of 107 myocardial samples collected from patients undergoing cardiac transplantation whose failure arises from different etiologies (e.g. idiopathic dilated cardiomyopathy, ischemic cardiomyopathy, valvular cardiomyopathy, and hypertrophic cardiomyopathy) and from “normal” organ donors whose hearts cannot be used for transplants. Arrays were intensity normalized and hierarchical clustering (average group linkage, Pearson correlation, threshold r=0.8) was applied to identify groups of co-expressed genes. ApoO expression levels were plotted for the 107 human hearts tested and used to define relevant molecular pathways using both Toppgene and Ingenuity Pathway Analysis (Ingenuity systems, Redwood City, Calif., USA). ApoO subcellular localization was predicted using Mitopred, mitoprot and YLoc. Animals: All animal Studies followed the INSERM Institute Animal Facility guidelines and were approved by the animal care committees of the INSERM I2MC UMR 1048. All animal procedures were performed according to the guidelines of the French Ministry of Agriculture. Animals were housed at the Toulouse I2MC animal facility in a room lit 12 h per day (6 AM-6 PM) at an ambient temperature of 22+/−1° C. […] All ApoO sequences within the expression vectors were verified by DNA double strand sequencing using ABI PRISM®BigDye™ Terminator version 3.1 Ready reaction cycle sequencing kit (Life Technologies SAS, Villebon sur Yvette) and loaded on an ABI 3130XL DNA sequencing instrument (Life Technologies SAS, Villebon sur Yvette). […]

H9c2 cardiac myoblasts [2] = experiment: Lipid profiling (FAME, diglycerides, triglycerides, BODIPY-palmitate) in cardiac myoblasts; conditions: ApoO cells treated with both palmitate and oleate (FIG. 11a-b)
Excerpt: as §1

[3] = tested on: long-chain acyl-CoA synthetase (ACSL); experiment: Acyl-CoA synthetase activity in cardiac myoblasts; conditions: ApoO cells treated with 5 μM triacsin C
Excerpt: After ethical committee approval, all patients in this study gave written consent for sample collection and molecular analysis prior to inclusion. Patients were carefully selected by physicians from the Department of Cardiology, Toulouse University Hospital, prior to coronary by-pass surgery. Bioinformatics. Microarray expression data from human heart samples were downloaded from the GEO repository (GSE1145). This series consisted of 107 myocardial samples collected from patients undergoing cardiac transplantation whose failure arises from different etiologies (e.g. idiopathic dilated cardiomyopathy, ischemic cardiomyopathy, valvular cardiomyopathy, and hypertrophic cardiomyopathy) and from “normal” organ donors whose hearts cannot be used for transplants. Arrays were intensity normalized and hierarchical clustering (average group linkage, Pearson correlation, threshold r=0.8) was applied to identify groups of co-expressed genes. […] All ApoO sequences within the expression vectors were verified by DNA double strand sequencing using ABI PRISM®BigDye™ Terminator version 3.1 Ready reaction cycle sequencing kit (Life Technologies SAS, Villebon sur Yvette) and loaded on an ABI 3130XL DNA sequencing instrument (Life Technologies SAS, Villebon sur Yvette). […]

## N#CC(C#N)=NNc1cccc(Cl)c1 [CCCP, carbonyl cyanide m-chlorophenyl hydrazone]
H9c2 cardiac myoblasts [1]; ApoO cells, addition of uncoupler 2 μM CCCP (FIG. 4B)
  increase in oxygen consumption: 2 fold

## CCCCCCCC/C=C\CCCCCCCC(=O)O [oleate, reference compound]
Caspase-3
  decrease in Caspase-3 activity: 2 fold
H9c2 cardiac myoblasts [2]
  decrease in diglyceride/triglyceride ratio: 12 fold

## CC[C@H]1/C=C/C=C/C[C@@H](C)[C@H](O)[C@@](C)(O)C(=O)[C@@H](C)[C@H](O)[C@@H](C)C(=O)[C@@H](C)[C@H](O)[C@@H](C)/C=C/C(=O)O[C@@H]2[C@H](C)[C@H](CC1)O[C@]1(CC[C@H](C)[C@H](C[C@@H](C)O)O1)[C@H]2C [oligomycin]
H9c2 cardiac myoblasts [1]
  oxygen consumption: partly inhibited

## CCC/C=C/C/C=C/C=C/C=N/NN=O [triacsin C, reference compound]
[3]
  ApoO-induced increase of ACSL activity: significantly reversed

## antimycin
H9c2 cardiac myoblasts [1]
  oxygen consumption: almost completely inhibited
